Data as given in publication PMC6895180 (Nature Communications, 2019).
Values joined by “and” are separate entries in the source; they are usually repeats but may differ in a detail not shown here. Equal entries are not always repeated. Where two headings read alike, the source gives them in different places.

Test system: T. brucei NY-SM cells
Assay: Susceptibility assay, NY-SM cells
Type: cell-based, Trypanosoma brucei brucei
Procedure: Susceptibility assays with NY-SM[51], BS221[48] and TbAT1-KO[48] (derived from BS221) cells were performed using 10 concentrations of a 4-fold compound dilution series starting at 64 µM. Parasites were seeded at 4 × 10^3 parasites per well and exposed to drug compound for 72 h, after which resazurin (final concentration of 10 µg mL^−1) was added to the plates. Fluorescence intensities were determined after 6 h.

## Nc1ncnc2c1ccn2[C@@H]1O[C@H](CO)C[C@H]1O [Compound 9, 3’-deoxytubercidin]
NYsm parental cells, single replicates, read-out: IC50
  IC50: 7.98 nM and 7.87 nM
NYsm, 0.000244141 µM
  Inhibition (%): 0% and 3.5% and 5.32% and 2.3%
NYsm, 0.000976563 µM
  Inhibition (%): 5.56% and 15% and 14% and 7%
NYsm, 0.00390625 µM
  Inhibition (%): 52% and 44%
NYsm, 0.015625 µM
  Inhibition (%): 98%
NYsm, 1 µM
  Inhibition (%): 98%
Trypanosoma brucei, NYsm parental cells, single replicates, read-out: IC50
  IC50: 7.92 nM
Trypanosoma brucei, NYsm, 0.00390625 µM
  inhibition at 0.00390625 µM: 53%
Trypanosoma brucei, NYsm, 0.015625 µM
  inhibition at 0.015625 µM: 99%
Trypanosoma brucei, NYsm, 0.0625 µM
  inhibition at 0.0625 µM: 99%
Trypanosoma brucei, NYsm, 0.25 µM
  inhibition at 0.25 µM: 100%
Trypanosoma brucei, NYsm, 1 µM
  inhibition at 1 µM: 100%
Trypanosoma brucei, NYsm, 4 µM
  inhibition at 4 µM: 100%
Trypanosoma brucei, NYsm, 16 µM
  inhibition at 16 µM: 100%
Trypanosoma brucei, NYsm, 64 µM
  inhibition at 64 µM: 100%
Trypanosoma brucei, single determinations, read-out: IC50, NYsm
  IC50: 5.2 nM
Single determinations, read-out: IC50, NYsm
  IC50: 5.9 nM and 6.6 nM and 3.6 nM and 4.6 nM and 3.7 nM and 6.4 nM
